This is an account of results in patent US20230150970A1, “AMINOPYRIMIDINE DERIVATIVES AND THEIR USE AS ARYL HYDROCARBON RECEPTOR MODULATORS” (DONG-A ST CO., LTD., priority 2020, published 2023).

In this experiment the target is T1, AhR (Homo sapiens, UniProt P35869).
T1 sequence (P35869 11-848): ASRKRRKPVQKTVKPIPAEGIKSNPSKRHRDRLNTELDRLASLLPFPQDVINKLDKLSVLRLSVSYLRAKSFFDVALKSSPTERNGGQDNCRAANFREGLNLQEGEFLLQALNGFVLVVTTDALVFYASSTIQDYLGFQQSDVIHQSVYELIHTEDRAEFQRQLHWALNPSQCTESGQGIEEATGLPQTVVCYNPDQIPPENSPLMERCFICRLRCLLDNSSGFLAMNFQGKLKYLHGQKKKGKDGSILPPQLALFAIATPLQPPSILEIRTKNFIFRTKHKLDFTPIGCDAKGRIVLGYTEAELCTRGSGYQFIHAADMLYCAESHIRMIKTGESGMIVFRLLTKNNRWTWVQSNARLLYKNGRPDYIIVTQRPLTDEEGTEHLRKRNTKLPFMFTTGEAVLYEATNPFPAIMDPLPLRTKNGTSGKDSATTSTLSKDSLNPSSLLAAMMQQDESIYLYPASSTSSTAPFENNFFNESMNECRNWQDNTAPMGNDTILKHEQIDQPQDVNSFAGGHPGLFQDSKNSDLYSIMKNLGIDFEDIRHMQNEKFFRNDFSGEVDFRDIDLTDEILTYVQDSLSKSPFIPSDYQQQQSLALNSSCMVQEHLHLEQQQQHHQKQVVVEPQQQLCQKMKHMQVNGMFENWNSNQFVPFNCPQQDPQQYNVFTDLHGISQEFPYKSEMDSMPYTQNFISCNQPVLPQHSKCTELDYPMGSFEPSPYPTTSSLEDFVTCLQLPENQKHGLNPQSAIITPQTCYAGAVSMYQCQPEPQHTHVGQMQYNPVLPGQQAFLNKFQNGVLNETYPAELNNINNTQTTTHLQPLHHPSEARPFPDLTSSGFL
The experiment in a line: In Vitro Assay 1: XRE-luciferase reporter assay, antagonism in human cell line (HepG2). The conditions noted are these: Assay 1: AhR-Luc Human Antagonism (IC50, nM), 6 hours. (In general: A reporter such as luciferase makes a cellular process visible.)

Setting [1] is: values marked *: kynurenine 50 μM.
Where [2] appears, read: unmarked values: kynurenine 200 μM.

Source text: In Vitro XRE-Luciferase Reporter Assay (In Vitro Assay 1, 2, 3) AhR activation leads the induction of target gene expression such as CYP1A1 and CYPIB1 by AhR binding to AhR-responsive DNA elements also known as xenobiotics responsive elements (XREs). The assay for measuring AhR activity herein is the luciferase assay using cell lines transfected with luciferase reporter plasmid containing XREs at the upstream of the reporter gene. Cells transfected with XRE-luciferase reporter (XRE-Luc), plasmid drive luciferase activity reflecting activation and inhibition of AhR in the cells. […] Kynurenine (an endogenous AhR agonist), was used to stimulate cells to test antagonistic properties of the compounds. The half-maximal inhibitory concentration (IC50), or half-maximal effective concentration (EC50), value was calculated using nonlinear regression (four parameters), with Prism8.0 software (GraphPad).
In Vitro Assay 1: Antagonism in Human Cell Line
HepG2 (human hepatoma cell line) cell line with a XRE-luciferase reporter either transiently or stably (Invivogen) were plated in complete medium and incubated at 37° C. in a CO2 incubator. After 24 hours, cells were treated with kynurenine (50* or 200 μM) alone (negative control) or with test compounds for 6 hours. Luciferase activity was measured with a commercial kit such as the Promega Luciferase kit or Invivogen Luciferase kit. Relative luciferase activity (Firefly/Nano-Luc) was used to calculate IC50 values. […] (IC50 values are grouped as A, B, C and D, whereby A: IC50<0.01 μM; B: 0.01<IC50<0.1 μM; C: 0.1<IC50<1.0 μM; D: IC50>1.0 μM)

Regarding `O[C@H]1CCN(c2cc(-c3ccc(Cl)cc3)nc(-c3cccnc3)n2)C[C@@H]1F` [Example 222, (3S,4S)-1-(6-(4-chlorophenyl)-2-(pyridin-3-yl)pyrimidin-4-yl)-3-fluoropiperidin-4-ol], the half-maximal inhibitory concentration (IC50) (in general, the point on the concentration scale where inhibition reaches its midpoint) under setting [1] was less than 10 nM.
The same measure, in the same setting: the figure for `O=C(CO)N1CCN(c2cc(-c3ccc(Cl)cc3)nc(-c3cccnc3)n2)CC1` [Example 223, 1-(4-(6-(4-chlorophenyl)-2-(pyridin-3-yl)pyrimidin-4-yl)piperazin-1-yl)-2-hydroxyethan-1-one] is less than 10 nM.
In turn, `OCC1CCN(c2cc(-c3ccc(OC(F)(F)F)cc3)nc(-c3cccnc3)n2)CC1` [Example 227, (1-(2-(pyridin-3-yl)-6-(4-(trifluoromethoxy)phenyl)pyrimidin-4-yl)piperidin-4-yl)methanol] came in with an IC50 under setting [2] of 10 to 100 nM.
`OCC1CCN(c2cc(-c3ccc(Cl)cc3)nc(-c3cccnc3)n2)CC1O` (stereo not drawn) [Example 233, 1-(6-(4-chlorophenyl)-2-(pyridin-3-yl)pyrimidin-4-yl)-4-(hydroxymethyl)piperidin-3-ol] gave an IC50 under setting [1] of less than 10 nM.
Still for that read-out and setting: the figure for `O[C@@H]1CN(c2cc(-c3ccc(Cl)cc3)nc(-c3cccnc3)n2)C[C@H]1F` [Example 234, (3R,4R)-1-(6-(4-chlorophenyl)-2-(pyridin-3-yl)pyrimidin-4-yl)-4-fluoropyrrolidin-3-ol] is less than 10 nM.
`CC(O)C(=O)NC1CCN(c2cc(-c3ccc(Cl)cc3)nc(-c3cccnc3)n2)CC1` (stereo not drawn) [Example 237, N-(1-(6-(4-chlorophenyl)-2-(pyridin-3-yl)pyrimidin-4-yl)piperidin-4-yl)-2-hydroxypropanamide] had a 50% inhibitory concentration (IC50) under setting [2] of 10 to 100 nM.
On the same count and under the same terms, the figure for `O=C(CO)NC1CCN(c2cc(-c3ccc(Cl)cc3)nc(-c3cccnc3)n2)CC1` [Example 238, N-(1-(6-(4-chlorophenyl)-2-(pyridin-3-yl)pyrimidin-4-yl)piperidin-4-yl)-2-hydroxyacetamide] is 10 to 100 nM; for `OC[C@H]1CCN(c2cc(-c3ccc(Cl)cc3)nc(-c3cccnc3)n2)C1` [Example 240, (S)-(1-(6-(4-chlorophenyl)-2-(pyridin-3-yl)pyrimidin-4-yl)pyrrolidin-3-yl)methanol] it is less than 10 nM.
Same read-out and setting: the figure for `CC(=O)N[C@@H]1CN(c2cc(-c3ccc(Cl)cc3)nc(-c3cccnc3)n2)C[C@H]1O` [Example 241, N-((3R,4R)-1-(6-(4-chlorophenyl)-2-(pyridin-3-yl)pyrimidin-4-yl)-4-hydroxypyrrolidin-3-yl)acetamide] is 10 to 100 nM.
Still for that read-out and setting: the figure for `CC(=O)N[C@@H]1CN(c2cc(-c3ccc(Cl)cc3)nc(-c3cccnc3)n2)C[C@H]1OC(C)=O` [Example 242, (3R,4R)-4-acetamido-1-(6-(4-chlorophenyl)-2-(pyridin-3-yl)pyrimidin-4-yl)pyrrolidin-3-yl acetate] is 10 to 100 nM; for `CC(=O)N[C@H]1CN(c2cc(-c3ccc(Cl)cc3)nc(-c3cccnc3)n2)C[C@H]1O` [Example 244, N-((3S,4R)-1-(6-(4-chlorophenyl)-2-(pyridin-3-yl)pyrimidin-4-yl)-4-hydroxypyrrolidin-3-yl)acetamide] it is more than 1000 nM; for `CC(=O)N[C@H]1CN(c2cc(-c3ccc(Cl)cc3)nc(-c3cccnc3)n2)C[C@@H]1O` [Example 245, N-((3S,4S)-1-(6-(4-chlorophenyl)-2-(pyridin-3-yl)pyrimidin-4-yl)-4-hydroxypyrrolidin-3-yl)acetamide] it is 10 to 100 nM.
`OC[C@H]1CCN(c2cc(-c3ccc(Cl)cc3)nc(-c3cccnc3)n2)C[C@H]1O` [Example 247, (3S,4R)-1-(6-(4-chlorophenyl)-2-(pyridin-3-yl)pyrimidin-4-yl)-4-(hydroxymethyl)piperidin-3-ol] registered an IC50 under setting [2] of 10 to 100 nM.
For `OC[C@H]1CCN(c2cc(-c3ccc(C(F)(F)F)cc3)nc(-c3cccnc3)n2)C[C@H]1O` [Example 248, (3S,4R)-4-(hydroxymethyl)-1-(2-(pyridin-3-yl)-6-(4-(trifluoromethyl)phenyl)pyrimidin-4-yl)piperidin-3-ol], the IC50 under setting [2] lay in the range of 10 to 100 nM.
As to `OC[C@H]1CCN(c2cc(-c3ccc(Cl)cc3)nc(-c3cccnc3)n2)C[C@H]1F` [Example 249, ((3S,4R)-1-(6-(4-chlorophenyl)-2-(pyridin-3-yl)pyrimidin-4-yl)-3-fluoropiperidin-4-yl)methanol], the 50% inhibitory concentration (IC50) under setting [2] is 10 to 100 nM.
As to `OC[C@H]1CCN(c2cc(-c3ccc(C(F)(F)F)cc3)nc(-c3cccnc3)n2)C[C@H]1F` [Example 250, ((3S,4R)-3-fluoro-1-(2-(pyridin-3-yl)-6-(4-(trifluoromethyl)phenyl)pyrimidin-4-yl)piperidin-4-yl)methanol], the IC50 under setting [2] was less than 10 nM.
Still for that read-out and setting: the figure for `OC[C@@H]1CCN(c2cc(-c3ccc(Cl)cc3)nc(-c3cccnc3)n2)C[C@@H]1F` [Example 251, ((3R,4S)-1-(6-(4-chlorophenyl)-2-(pyridin-3-yl)pyrimidin-4-yl)-3-fluoropiperidin-4-yl)methanol] is less than 10 nM.
`OC[C@@H]1CCN(c2cc(-c3ccc(C(F)(F)F)cc3)nc(-c3cccnc3)n2)C[C@@H]1F` [Example 252, ((3R,4S)-3-fluoro-1-(2-(pyridin-3-yl)-6-(4-(trifluoromethyl)phenyl)pyrimidin-4-yl)piperidin-4-yl)methanol]: under setting [2], the IC50 was less than 10 nM.
On to `OC[C@H]1CCN(c2cc(-c3ccc(Cl)cc3)nc(-c3cccnc3)n2)C[C@@H]1F` [Example 253, ((3R,4R)-1-(6-(4-chlorophenyl)-2-(pyridin-3-yl)pyrimidin-4-yl)-3-fluoropiperidin-4-yl)methanol], for which the IC50 under setting [2] is less than 10 nM.
Same read-out and setting: the figure for `OC[C@H]1CCN(c2cc(-c3ccc(C(F)(F)F)cc3)nc(-c3cccnc3)n2)C[C@@H]1F` [Example 254, ((3R,4R)-3-fluoro-1-(2-(pyridin-3-yl)-6-(4-(trifluoromethyl)phenyl)pyrimidin-4-yl)piperidin-4-yl)methanol] is less than 10 nM; for `OC[C@H]1CN(c2cc(-c3ccc(Cl)cc3)nc(-c3cccnc3)n2)C[C@H]1O` [Example 255, (3S,4R)-1-(6-(4-chlorophenyl)-2-(pyridin-3-yl)pyrimidin-4-yl)-4-(hydroxymethyl)pyrrolidin-3-ol] it is 10 to 100 nM.
On the same count and under the same terms, the figure for `OC[C@H]1CN(c2cc(-c3ccc(C(F)(F)F)cc3)nc(-c3cccnc3)n2)C[C@H]1O` [Example 256, (3S,4R)-4-(hydroxymethyl)-1-(2-(pyridin-3-yl)-6-(4-(trifluoromethyl)phenyl)pyrimidin-4-yl)pyrrolidin-3-ol] is less than 10 nM; for `OC[C@H]1CN(c2cc(-c3ccc(Cl)cc3)nc(-c3cccnc3)n2)C[C@@H]1O` [Example 257, (3R,4R)-1-(6-(4-chlorophenyl)-2-(pyridin-3-yl)pyrimidin-4-yl)-4-(hydroxymethyl)pyrrolidin-3-ol] it is less than 10 nM.
On the same count and under the same terms, the figure for `OC[C@H]1CCN(c2cc(-c3ccc(Cl)cc3)nc(-c3cccnc3)n2)C[C@@H]1O` [Example 259, (3R,4R)-1-(6-(4-chlorophenyl)-2-(pyridin-3-yl)pyrimidin-4-yl)-4-(hydroxymethyl)piperidin-3-ol] is less than 10 nM; for `OC[C@@H]1CCN(c2cc(-c3ccc(Cl)cc3)nc(-c3cccnc3)n2)C[C@H]1O` [Example 261, (3S,4S)-1-(6-(4-chlorophenyl)-2-(pyridin-3-yl)pyrimidin-4-yl)-4-(hydroxymethyl)piperidin-3-ol] it is less than 10 nM.
On to `Cc1ccncc1-c1nc(-c2ccc(C(F)(F)F)cc2)cc(N2CC[C@H](O)C2)n1` [Example 263, (S)-1-(2-(4-methylpyridin-3-yl)-6-(4-(trifluoromethyl)phenyl)pyrimidin-4-yl)pyrrolidin-3-ol], for which the 50% inhibitory concentration (IC50) under setting [2] was less than 10 nM.
On the same count and under the same terms, for `OC[C@@H]1CCN(c2cc(-c3ccc(Cl)cc3)nc(-c3cccnc3)n2)C[C@@H]1O` [Example 264, (3R,4S)-1-(6-(4-chlorophenyl)-2-(pyridin-3-yl)pyrimidin-4-yl)-4-(hydroxymethyl)piperidin-3-ol] the value was 10 to 100 nM.
The same measure, in the same setting: for `OC[C@@H]1CCN(c2cc(-c3ccc(C(F)(F)F)cc3)nc(-c3cccnc3)n2)C[C@@H]1O` [Example 265, (3R,4S)-4-(hydroxymethyl)-1-(2-(pyridin-3-yl)-6-(4-(trifluoromethyl)phenyl)pyrimidin-4-yl)piperidin-3-ol] the value was less than 10 nM; for `OC[C@@H]1CN(c2cc(-c3ccc(Cl)cc3)nc(-c3cccnc3)n2)C[C@H]1O` [Example 266, (3S,4S)-1-(6-(4-chlorophenyl)-2-(pyridin-3-yl)pyrimidin-4-yl)-4-(hydroxymethyl)pyrrolidin-3-ol], less than 10 nM.
In turn, `OC[C@@H]1CN(c2cc(-c3ccc(C(F)(F)F)cc3)nc(-c3cccnc3)n2)C[C@H]1O` [Example 267, (3S,4S)-4-(hydroxymethyl)-1-(2-(pyridin-3-yl)-6-(4-(trifluoromethyl)phenyl)pyrimidin-4-yl)pyrrolidin-3-ol] had an IC50 under setting [2] of less than 10 nM.
